Legend:
human sperm = test: Effect of quinones on sperm motility; type: cell-based
Description: Following the preparation of spermatozoa by standard Percoll gradient they were resuspended in homologous seminal plasma to a concentration of 20 million per ml, immediately prior to the beginning of the experiment. 50 μl of the sperm suspension was placed in an eppendorf tube, and the quinone was either added alone or in combination with other reagents, for example, KI, HRP (Horseradish Peroxidase), BHT (butylated hydroxytoluene) etc. depending on the experiment. The volume was made up to 100 μl with BWW/PVA.
The quinone was always the final reagent to be added. […] The sample was gently agitated and 10 μl was placed on a slide and a motility was scored. The aim was to score a motility approximately 20 seconds following the addition of the quinone. There were two controls set up, one motility count taken at the beginning of the experiment (initial control) and one motility count taken at the end of the experiment (final control). The controls consisted of 50 μl of the sperm suspension followed by the addition of 50 μl BWW/PVA. The reason for having two controls was to observe if any changes in sperm motility had occurred simply as a factor of time, i.e. from residing in seminal plasma for a long duration. At all times during the experiment, the spermatozoa were incubated in a hot box at 24° C. All motility experiments were carried out on sperm suspended in seminal plasma unless otherwise stated.

[1] = system: spermatozoa in seminal plasma; test: Lucigenin-dependent chemiluminescence detection of quinone-induced superoxide; type: cell-based, human; details: increasing doses incl. 25 μM and 50 μM; FIG. 1b
Text: ROS generation was monitored by luminometry employing the chemiluminescence probes lucigenin and luminol. Lucigenin is sensitive to the presence of superoxide anion and was used to monitor the free radical responses to NAD(P)H. Luminol, when used in conjunction with horseradish peroxidase (HRP; Sigma Type Vl, 288 U/mg), detects mainly hydrogen peroxide (Aitken et al., 1992) and was used to monitor the responses of spermatozoa to PMA (phorbol 12-myristate, 13-acetate), an activator of protein kinase C. NAD(P)H could not be used with the luminol-peroxidase system because of the generation of high background signals, presumably due to the oxidase reactions of HRP. Photon emission was monitored at 37° C. using the Bermold 9505B luminometer (Berthold, Wilbad, Germany) featuring 6 electronically compensated, peltier cooled, photomultipliers and the results expressed as counts/minute. For both of the probes used, 400 μl of spermatozoa, at a concentration of 10×10^6/ml, were placed in a 3 ml plastic, flat-bottomed plastic tube. For luminol-based reactions, the spermatozoa were suspended in BWW supplemented with Albuminar, but when lucigenin was used the Albuminar was replaced with 1 mg/ml polyvinyl alcohol. […] The luminometer results were recorded as continuous traces and as integrated photon counts over a fixed period of time (5 min). […]

[2] = system: sperm, seminal plasma and serum; test: Luminol/peroxidase-dependent chemiluminescence detection of quinone-induced H2O2; type: cell-based, human; details: 50 μM
Text: (§1) ROS generation was monitored by luminometry employing the chemiluminescence probes lucigenin and luminol. Lucigenin is sensitive to the presence of superoxide anion and was used to monitor the free radical responses to NAD(P)H. Luminol, when used in conjunction with horseradish peroxidase (HRP; Sigma Type Vl, 288 U/mg), detects mainly hydrogen peroxide (Aitken et al., 1992) and was used to monitor the responses of spermatozoa to PMA (phorbol 12-myristate, 13-acetate), an activator of protein kinase C. NAD(P)H could not be used with the luminol-peroxidase system because of the generation of high background signals, presumably due to the oxidase reactions of HRP. Photon emission was monitored at 37° C. using the Bermold 9505B luminometer (Berthold, Wilbad, Germany) featuring 6 electronically compensated, peltier cooled, photomultipliers and the results expressed as counts/minute. For both of the probes used, 400 μl of spermatozoa, at a concentration of 10×10^6/ml, were placed in a 3 ml plastic, flat-bottomed plastic tube. For luminol-based reactions, the spermatozoa were suspended in BWW supplemented with Albuminar, but when lucigenin was used the Albuminar was replaced with 1 mg/ml polyvinyl alcohol. A 4 μl aliquot of a 25 mM stock solution of either luminol or lucigenin m-dimethyl sulphoxide (DMSO), was then added to the cell suspension, resulting in a final probe concentration of 250 μM. For the measurement of hydrogen peroxide generation by intact cells, luminol-dependent chemiluminescence was enhanced by addition of 8 μl of HRP, freshly prepared at a concentration of 2 mg/ml in PBS, to give a final HRP concentration of 11.52 U/ml. The luminometer results were recorded as continuous traces and as integrated photon counts over a fixed period of time (5 min).
Luminol alone measures H2O2; however when used alongside HRP, it can measure the production of H2O2 internally and externally. The sperm were prepared by standard percoll gradient and resuspended in seminal plasma or BWW/PVA to a concentration of 10 million cells per ml. […]

spermatozoa = test: Effect on lipid peroxidation in spermatozoa; type: cell-based, human; details: exposure to compound vs control
HIV-1 = test: Virucidal activity using cell-free virus (viral adhesion assay, syncytia in C8166 cells); type: cell-based
Description: A simple, microtitre plate assay was developed (viral adhesion assay) in which the virus was attached to the solid phase by Pol-L-lysine Hydrobromide (PLL, Sigma). Sterile 24 and 96 well plates (Nunc) were coated for 1 hour with 50 μl of 50 μg/ml PLL at room temperature. When using 96 well microtitre plates the outer ring of wells were left uncoated and filled with 250 μl of sterile PBS to counteract the effects of evaporation. The coated wells were washed twice with sterile PBS using a Denley-4 plate washer. 25 μl of RPMI 1640 medium containing HIV-1 (50×TCID50) was added to the wells and incubated for 1 hour at room temperature. The plate was again washed twice with sterile PBS. 25 μl of varying concentrations of the candidate virucide were added to each well for 15 minutes and the virucide removed with two washes of sterile PBS. The T-lymphocyte cell line C8166, at a concentration of 4×10^4 cells in 300Fl RPMI 1640, were added to each well so that the cells formed a uniform monolayer on the adherent virus. After incubation for 72 hours, the number of syncytia in the monolayer gave an accurate measure of the amount of infectious virus present. Wells untreated with virucide were used as positive controls. […] The assay allowed the efficient removal of the candidate virucides or disinfectant and allowed the compound to be assessed for accurately determined contact times.

human spermatozoa [3] = test: Nicotinamide dinucleotide-induced superoxide generation, lucigenin-dependent chemiluminescence; type: cell-based
Text: as §1
The ability of human spermatozoa to generate superoxide anion in response to NADPH was monitored by lucigenin-dependent chemiluminescence and compared with its non-phosphorylated and non-reduced counterparts, i.e. NADH, NADP^+ and NAD^+. In addition, the stimulatory properties of an isomer of NADPH, usually non-active in reductive biosynthesis, were examined. All pyridine nucleotides were made up to the required concentration in PBS immediately prior to use. Stock solutions of the nucleotides were made up at concentrations 10 fold higher than the required final working concentration, to allow for a 10 fold dilution on addition to the suspensions of spermatozoa.

human spermatozoa [4] = test: Quantification of superoxide anion generation by SOD-inhibitable reduction of cytochrome C; type: cell-based; details: 2 mM, n=5
Description: Superoxide anion generation was quantified spectrophotometrically via the superoxide-dependent reduction of cytochrome C (McCord and Fridovich, 1969). Spermatozoa were used at an increased concentration of 10×10^7/ml in BWW supplemented with PVA (1 mg/ml). An aliquot (400 μl) of this sperm suspension was placed in a 1 ml disposable, plastic cuvette and 50 μl of cytochrome C (Type Vl from horse heart), was added to give a final working concentration of 100 μM. The reference cuvette contained the same ingredients, except that 50 μl of SOD was added to give final concentration of 196 U/ml. Absorbance was monitored at 550 nm and the SOD-inhibitable superoxide generation calculated using an extinction coefficient for reduced cytochrome C of ε=21.1 mM^−1cm^−1.

human spermatozoa [5] = test: Percentage motility of spermatozoa exposed to NADPH; type: cell-based; details: doses 0.625 to 10 mM, at least 3 hr

Q: For `O=C1C=CC(=O)c2ccccc21` [1,4-naphthoquinone], which mean motility score (human sperm; 50 μM quinone, human sperm) is on record?
A: 0.143%

Q: What about the sperm immobilisation (human sperm; concentrations ranging from 25 μM to 100 μM) of the same molecule?
A: completely immobilised

Q: What about the IC50 (human sperm; human sperm in seminal plasma, motility scored approximately 20 seconds after addition, read-out: ID50, dose-dependent inhibition of sperm motility) of the same molecule?
A: ~10 µM

Q: What about the “superoxide burst generated by spermatozoa in seminal plasma” value [1] of the same molecule?
A: Increasing doses of this compound led to a corresponding increase in superoxide production

Q: And the “H2O2 production in seminal plasma and serum” value ([2]; no spermatozoa)?
A: no such activity

Q: What about the “H2O2 production, spermatozoa in BWW” value ([2]; on addition of the reagent) of the same molecule?
A: instantaneous significant burst of H2O2

Q: And the “time of peak of slow secondary increase in H2O2 after initial exposure” value ([2]; spermatozoa in BWW)?
A: 25 to 30 min

Q: What about the “lipid peroxidation in spermatozoa” value (spermatozoa) of the same molecule?
A: lipid peroxidation did not occur

Q: And the “antiviral activity against HIV-1” value (HIV-1; absence of human semen, 15 minutes contact)?
A: dose-dependent antiviral activity

Q: What about the “antiviral activity against HIV-1, effect of semen” value (HIV-1; presence of human semen vs absence) of the same molecule?
A: potentiated by an order of magnitude

Q: Which results are given for `NC(=O)C1=CN([C@@H]2O[C@H](COP(=O)(O)OP(=O)(O)OC[C@H]3O[C@@H](n4cnc5c(N)ncnc54)[C@H](OP(=O)(O)O)[C@@H]3O)[C@@H](O)[C@H]2O)C=CC1` [NADPH, Dihydronicotinamide adenine dinucleotide phosphate]?
A: lucigenin-dependent chemiluminescent response (superoxide anion generation) (human spermatozoa [3]; 500 μM nucleotide): burst of ROS generation; increase in the chemiluminescent signal (human spermatozoa [3]; addition to spermatozoa, lucigenin, FIG. 5a): 10 fold; superoxide generation rate during sudden burst (human spermatozoa [4]): 99.52+/−9.12 pmol.min^−1. 10^6 spermatozoa; superoxide release rate after stabilisation (human spermatozoa [4]; thereafter): 7.65+/−0.97 pmol.min^−1. 10^6 spermatozoa; percentage motility of the spermatozoa (human spermatozoa [5]): remained unchanged

Source: patent US6433022B1, “Spermicide” (Medical Research Council, priority 1997, dated 2002)
